The values that follow come from publication PMC4673829 (Nature Communications, 2015).

The target in assay [1] is T1, JARID1A PHD3 domain (Homo sapiens, UniProt P29375).
T1 construct: made in house; host or cells: Escherichia coli Rosetta BL21 DE3 pLysS
T1 sequence (P29375 1607-1661 limits assumed): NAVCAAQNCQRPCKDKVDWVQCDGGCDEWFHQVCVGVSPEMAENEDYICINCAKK
The experiment in a line: ITC binding to JARID1A PHD3 domain. The text has this:
(§1) We use isothermal titration calorimetry (ITC) to obtain full thermodynamic descriptions for binding of H3K4me3, H3C4me3 and H3G4 peptides to five representative reader proteins that specifically recognize H3K4me3 (the PHD zinc fingers of JARID1A, BPTF, TAF3 and the tudor domains of the Royal family of SGF29 and JMJD2A) (Table 1 and Fig. 1b,c)[19][20][21][22][23]. The five reader pockets are different in the aromatic cage composition and architecture, which allows us to examine the effect of individual constitution of the aromatic cage on binding differences.
(§2) Reader proteins were prepared and purified following the previously reported procedure. Briefly, the reader domains of BPTF, JMJD2A, JARID1A, TAF3 and SGF29 were expressed in Escherichia coli Rosetta BL21 DE3 pLysS hosts, using Terrific Broth medium. The bacteria were cultured to OD600 ∼0.6 at 37 °C after which they were induced with 0.5 mM isopropyl-b-D-thiogalactoside overnight at 16 °C. Proteins were purified using Ni-NTA beads for 6xHis-tagged proteins or glutathione sepharose beads for GST tagged proteins, respectively. After purification, the 6xHis tag was cleaved from JMJD2A and SGF29 using TEV-protease and the GST tag was cleaved from TAF3 using thrombin. Protein were purified by size-exclusion chromatography using a Superdex 75 column (GE Healthcare). SGF29 was eluted in 25 mM Tris, 50 mM NaCl, 1 mM dithiothreitol at pH 7.5; JMJD2A and TAF3 were eluted in 50 mM Tris at pH 7.5; BPTF and JARID1A were eluted in 50 mM Tris, 20 mM NaCl at pH 7.5. All proteins were made filter sterile and stored at 4 °C until further use.
(§3) Concentrations of histone peptides were measured by ultraviolet spectroscopy at 205 nm, following the previously reported method. All histone peptides were titrated to the same batch of reader proteins. […] Heats of dilution for histone peptides were determined in control experiments, and were subtracted from the titration binding data before curve fitting. […] For each reader–histone system, 5–7 independent ITC experiments were carried out. […]

Assay [2] addresses T2, TAF3 PHD domain (Homo sapiens, UniProt Q5VWG9).
T2 sequence (Q5VWG9 857-924): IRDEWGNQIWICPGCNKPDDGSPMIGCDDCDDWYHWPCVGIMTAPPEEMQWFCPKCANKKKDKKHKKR
The experiment in a line: ITC binding to TAF3 PHD domain. The settings on record: 5–7 independent experiments.
Description: as §1, §2, §3

The target in assay [3] is T3, BPTF PHD zinc finger (Homo sapiens, UniProt Q12830).
T3 construct: the PHD zinc fingers of JARID1A, BPTF, TAF3 and the tudor domains of the Royal family of SGF29 and JMJD2A; made in house; host or cells: Escherichia coli Rosetta BL21 DE3 pLysS
Briefly: ITC binding to BPTF PHD zinc finger. The settings on record: ITC (Auto-iTC200), one set of sites; 350–600 μM 10-mer peptide into 25–40 μM protein (eluted in 50 mM Tris, 20 mM NaCl, pH 7.5); 5–7 independent experiments; stoichiometry n=0.95–1.05.
Description: as §1
(§4) Reader proteins were prepared and purified following the previously reported procedure. Briefly, the reader domains of BPTF, JMJD2A, JARID1A, TAF3 and SGF29 were expressed in Escherichia coli Rosetta BL21 DE3 pLysS hosts, using Terrific Broth medium. The bacteria were cultured to OD600 ∼0.6 at 37 °C after which they were induced with 0.5 mM isopropyl-b-D-thiogalactoside overnight at 16 °C. […]
as §3

Assay [4] addresses T4, SGF29 tandem tudor domain (Homo sapiens, UniProt Q96ES7).
T4 construct: 6xHis (cleaved yes); made in house; host or cells: Escherichia coli Rosetta BL21 DE3 pLysS
T4 sequence (Q96ES7 115-293): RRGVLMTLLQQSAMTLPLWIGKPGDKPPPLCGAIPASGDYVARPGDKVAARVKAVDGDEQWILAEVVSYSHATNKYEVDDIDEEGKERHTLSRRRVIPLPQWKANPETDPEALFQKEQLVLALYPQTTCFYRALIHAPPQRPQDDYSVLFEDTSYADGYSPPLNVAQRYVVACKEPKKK
The experiment in a line: ITC binding to SGF29 tandem tudor domain. The settings on record: ITC (Auto-iTC200), one set of sites; 350–600 μM 10-mer peptide into 25–40 μM protein (eluted in 25 mM Tris, 50 mM NaCl, 1 mM dithiothreitol, pH 7.5); 5–7 independent experiments; stoichiometry n=0.95–1.05.
Description: as §1, §4, §3

Assay [5] deals with T5, JMJD2A tudor domain (Homo sapiens, UniProt O75164).
T5 construct: the PHD zinc fingers of JARID1A, BPTF, TAF3 and the tudor domains of the Royal family of SGF29 and JMJD2A; 6xHis (cleaved yes); made in house; host or cells: Escherichia coli Rosetta BL21 DE3 pLysS
T5 sequence (O75164 897-1011 limits assumed): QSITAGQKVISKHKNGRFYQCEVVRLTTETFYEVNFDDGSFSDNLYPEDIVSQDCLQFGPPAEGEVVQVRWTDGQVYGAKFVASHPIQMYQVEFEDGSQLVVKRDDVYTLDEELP
The experiment in a line: ITC binding to JMJD2A tudor domain. Conditions: 5–7 independent experiments.
Description: as §1, §4, §3

Where [6] appears, read: ITC (Auto-iTC200), one set of sites, 350–600 μM 10-mer peptide into 25–40 μM protein (eluted in 50 mM Tris, 20 mM NaCl, pH 7.5), 5–7 independent experiments, stoichiometry n=0.95–1.05, read-out: Kd.
[7] abbreviates: ITC (Auto-iTC200), one set of sites, 350–600 μM 10-mer peptide into 25–40 μM protein (eluted in 50 mM Tris, pH 7.5), stoichiometry n=0.95–1.05, read-out: Kd.

The structures appear in SMILES notation. Read-outs that look alike come from different tables or passages of the source.

On to `C[C@H](N)C(=O)N[C@@H](CCCNC(=N)N)C(=O)N[C@H](C(=O)N[C@@H](CCCCC(C)(C)C)C(=O)N[C@@H](CCC(N)=O)C(=O)N[C@H](C(=O)N[C@@H](C)C(=O)N[C@@H](CCCNC(=N)N)C(=O)N[C@@H](CCCCN)C(=O)N[C@@H](CO)C(=O)O)[C@@H](C)O)[C@@H](C)O` [H3C4me3], for which the equilibrium dissociation constant (Kd) was determined as 340 nM in assay [1] (setting [6]); 790 nM in assay [2] (setting [7]); 760 nM in assay [3]; 1400 nM in assay [4]; 16000 nM in assay [5] (ITC, 3 mM H3C4me3 into 200 μM JMJD2A).

As for `C[C@H](N)C(=O)N[C@@H](CCCNC(=N)N)C(=O)N[C@H](C(=O)NCC(=O)N[C@@H](CCC(N)=O)C(=O)N[C@H](C(=O)N[C@@H](C)C(=O)N[C@@H](CCCNC(=N)N)C(=O)N[C@@H](CCCCN)C(=O)N[C@@H](CO)C(=O)O)[C@@H](C)O)[C@@H](C)O` [H3G4], the Kd in assay [1] turned out to be 88000 nM; in assay [2] (ITC, 3 mM H3G4 into 200 μM TAF3), 36000 nM.

`C[C@H](N)C(=O)N[C@@H](CCCNC(=N)N)C(=O)N[C@H](C(=O)N[C@@H](CCCC[N+](C)(C)C)C(=O)N[C@@H](CCC(N)=O)C(=O)N[C@H](C(=O)N[C@@H](C)C(=O)N[C@@H](CCCNC(=N)N)C(=O)N[C@@H](CCCCN)C(=O)N[C@@H](CO)C(=O)O)[C@@H](C)O)[C@@H](C)O` [H3K4me3]: the equilibrium dissociation constant (Kd) in assay [1] (setting [6]) came out at 94 nM; in assay [2] (setting [7]), 24 nM; in assay [3] it was 490 nM; in assay [4] it was 1700 nM; in assay [5] (ITC (Auto-iTC200), one set of sites, 350–600 μM 10-mer peptide into 25–40 μM protein (eluted in 50 mM Tris, pH 7.5), stoichiometry n=0.95–1.05), 940 nM.
